Data on 1 molecule can be found in patent US10183941B2, “Pyrimidine or pyridopyridone compound and application thereof” (GUANGZHOU BEBETTER MEDICINE TECHNOLOGY CO., LTD., priority 2015, dated 2019).

In data set [1] the target is T1, CDK4 (GST-CDK4(1-303end)/GST-CycD3(1-292end)) (Homo sapiens, UniProt P11802).
T1 construct: GST-CDK4(1-303end); purchased Carna 04-105
In words: CDK4 activity inhibition experiment (Caliper mobility shift assay). Type of data set: biochemical. The note with it: enzyme activity inhibition; read-out: CDK4 IC50 class.

Data set [2] is described as follows: Pharmacokinetic (PK) experiment in rats. In kind it is in vivo. The note with it: male, SD, plasma, po, rat, intragastric 20 mg/kg. On the procedure:
Male SD rats weighing 300-350 g were fasted overnight prior to the experiment. The compounds to be tested were dissolved in 30% sulfobutyl ether-β-cyclodextrin (SBE-β-CD) and the rats were intragastric administration at 20 mg/kg. The blood was taken from the tails of the rats at 15 min, 30 min, and 1, 2, 3, 4, 6, 8 and 24 hours after administration, with about 0.3 ml of blood at each time point, and then the blood was placed in a centrifuge tube containing K2-EDTA, and centrifuged (2,000 g, 10 min, 4° C.) to take the plasma which was then stored in an ultra-low temperature freezer at −80° C. 50 μL, of plasma sample was mixed with 5 μL of internal standard (IS) and extracted with ethyl acetate. The residue was redissolved in acetonitrile after vacuum drying. The sample was filtered and injected into LC-MS/MS for analysis to determine the concentration of the compounds to be tested.
In the table: Tmax refers to the peak time, Cmax refers to the maximum plasma drug concentration, T1/2 is the half-life, AUClast refers to the area under the 0-24 hour time-concentration curve, AUCinf refers to the area under the 0-Inf time-concentration curve.

For data set [3], the target named is T2, CDK2 (Homo sapiens, UniProt P24941).
T2 construct: purchased Carna 04-103
Put plainly: CDK2 activity inhibition experiment (Caliper mobility shift assay). In kind it is biochemical. The note with it: enzyme activity inhibition; read-out: CDK2 IC50 class. As to the method: After being incubated at 28° C. for 60 minutes, 25 μl of stop solution was added to stop the reaction. Conversion rate data was read from Caliper EZ Reader II (Caliper Life Sciences). The conversion rate data was converted into inhibition rate data. […] The curve was plotted with compound concentration and inhibition rate as horizontal and vertical coordinates, and the IC50 was calculated by fitting the curve using XLFit excel add-in version 4.3.1 software. Inhibition rate %=(max-conversion rate)/(max-min)×100.

The subject of data set [4] is MDA-MB-231 breast cancer cells. In words: Cell cycle inhibition experiment (PI staining, flow cytometry). Type of data set: cell-based. The note with it: Homo sapiens, MDA-MB-231 cells, 24 h. From the text: The cell cycle and apoptosis assay kit (Beyotime, C1052) used in this experiment is an assay kit for analyzing the cell cycle and apoptosis using the classic method of Propidium staining (PI staining). Propidium (PI) is a double-stranded DNA fluorescent dye. The combination of propidium and double-stranded DNA can produce fluorescence, and fluorescence intensity is proportional to the amount of double-stranded DNA. After DNA in cells is stained with propidium, the DNA content of the cells can be measured by flow cytometry, and then the cell cycle and apoptosis can be analyzed according to the distribution of DNA content.
MDA-MB-231 cells were seeded into a 6-well plate at 3×10^5 per well and cultured for 24 hours.
In tumor cell cycle, the binding of CDK4 and CDK6 to cyclin D promotes G1 phase into S phase. CDK4/6 inhibitor selectively arrests the G1 phase of tumor cells into S phase. The detection results of the cell cycle of MDA-MB-231 breast cancer cells by flow cytometry indicate that the CDK4/6 inhibitor compounds provided by the present disclosure stop the growth of G1 phase cells and reduce S phase cells in a concentration-dependent manner, as shown in the following table.
Background: A flow cytometer gives signals particle by particle.

Data set [5] concerns phosphorylation of Rb at Ser780 in MDA-MB-231 breast cancer cells. Put plainly: Western Blot experiment, Rb phosphorylation. Type of data set: cell-based. The note with it: MDA-MB-231 cells, 16 hours incubation, FIG. 1. As to the method: MDA-MB-231 cells were grown in monolayer culture. […] The protein concentration was determined by the Branfor method. After being added with a loading buffer (Beyotime, # P0015L), the supernatant was boiled at 100° C. for 8 min, and the protein was separated by 8%-10% SDS-PAGE electrophoresis and then transferred to the PVDF membrane, and the membrane was blocked with 5% skimmed milk powder for 45 min, and then the cells were incubated overnight at 4° C. with primary antibody β-actin (CST, #4970), Rb (D20) Rabbit mAb (CST, #9313), Phospho-Rb(Ser780)(D59B7) Rabbit mAb (CST, #8180), and then the membrane was washed with TBST solution for 3×10 min. The cells were incubated in the dark at room temperature for 2 h with the fluorescent secondary antibody IRDye@680CW Goat (polyclonal) Anti-Rabbit 1gG (H+L), Highly Cross Adsorbed (LI-COR, #926-68071), and then the membrane was washed under the same condition above. Finally, the membrane was detected and imaged on a LI-COR Odyssey Infrared Fluorescence Scanning System, and the results are shown in FIG. 1.
CDK4/6 can make Rb protein lose the arrest on cell cycle by phosphorylating the tumor suppressor protein Rb protein. CDK4/6 inhibitor can prevent the inactivation of tumor suppressor protein Rb and thereby restore the arrest of Rb on cell cycle.
In general terms: Immunoblotting shows a protein as a band on a membrane.

Data set [6] relates to ZR-75-1. Put plainly: Tumor cell proliferation inhibition (CellTiter-Glo), ZR-75-1. In kind it is cell-based. The note with it: Homo sapiens, 72 hours, 10% fetal bovine serum, read-out: ZR-75-1 IC50 class. On the procedure: (§1) The content of adenosine triphosphate (ATP) was determined using the CellTiter-Glo Luminescent Cell Viability Assay Kit (Promega, Madison, Wis.) to evaluate cell viability. Tumor cell lines (SW620, ZR-75-1, MDA-MB-231) were purchased from the Cell Resource Center of IBS, Fudan University, Shanghai and the American Type Culture Collection (ATCC). The cell density was determined using Scepter automated cell counter (Millipore # PHCC00000) after the cells were digested with pancreatin in cell culture dishes and resuspended in DPBS medium. The cells were diluted to a solution of 44,000 cells per ml. The cell solution of which density was adjusted was added into the cell assay plate at 90 microliters per well. The well plate was incubated in an incubator with 5% CO2 at 37° C. for 24 hours and then added with test compounds with different concentrations. The cells were incubated with the compounds in the presence of 10% fetal bovine serum for 72 hours. ATP content was assayed using the CellTiter-Glo® Luminescent Cell Viability Assay kit (see instructions of manufacturer) to assess cell growth inhibition. Briefly, 30 μl of CellTiter-Glo® reagent was added to each well, rocked for 10 minutes to induce cell lysis, and […] were detected and recorded with Fluoroskan Ascent FL (Thermo). The maximum signal value was obtained from the cells treated with dimethyl sulfoxide for 72 hours. The minimum signal value was obtained from the separate culture medium (cell number was zero). Inhibition rate %=(maximum signal value−compound signal value)/(maximum signal value−minimum signal value)×100. Data was processed using GraphPad Prism V5.0 (GraphPad Software, San Diego, Calif.) software. IC50 values were calculated by fitting S-shaped dose-response curves.
(In general: In ATP-based viability assays light output follows the ATP content of the culture.)

Data set [7] has as its system SW620. Put plainly: Tumor cell proliferation inhibition (CellTiter-Glo), SW620. The note with it: Homo sapiens, SW-620; 72 hours, 10% fetal bovine serum; read-out: SW620 IC50 class. Type of data set: cell-based. On the procedure:
as §1

Structures are written as SMILES. Where two headings read alike, the source gives them in different places.

T1 sequence (P11802 whole entry): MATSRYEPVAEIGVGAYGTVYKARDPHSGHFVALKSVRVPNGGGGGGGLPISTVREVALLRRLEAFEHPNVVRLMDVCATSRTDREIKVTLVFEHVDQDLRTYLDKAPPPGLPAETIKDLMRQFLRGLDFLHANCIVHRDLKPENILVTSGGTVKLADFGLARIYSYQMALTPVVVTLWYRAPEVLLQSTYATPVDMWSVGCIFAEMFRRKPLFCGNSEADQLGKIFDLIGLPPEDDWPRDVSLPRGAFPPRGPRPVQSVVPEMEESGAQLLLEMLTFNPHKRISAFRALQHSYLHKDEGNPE
T1 sequence (P30281 whole entry partner): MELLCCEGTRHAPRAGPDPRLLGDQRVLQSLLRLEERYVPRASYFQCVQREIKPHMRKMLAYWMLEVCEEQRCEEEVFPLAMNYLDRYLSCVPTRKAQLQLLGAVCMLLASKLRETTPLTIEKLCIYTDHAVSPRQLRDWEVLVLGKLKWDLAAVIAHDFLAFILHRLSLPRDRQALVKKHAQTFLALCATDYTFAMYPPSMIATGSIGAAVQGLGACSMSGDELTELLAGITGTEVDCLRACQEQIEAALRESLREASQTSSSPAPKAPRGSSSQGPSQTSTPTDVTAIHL

Take `CC(=O)c1c(C)c2cnc(Nc3ccc(C4CCN(CCS(C)(=O)=O)CC4)cn3)nc2n(C2CCCC2)c1=O` [Compound 1, 6-acetyl-8-cyclopentyl-5-methyl-2-((5-(1-(2-(methylsulfonyl)ethyl)piperidin-4-yl)pyridin-2-yl)amino)pyrido[2,3-d]pyrimidin-7(8H)-one]: the IC50 (commonly the concentration that gives 50% inhibition) in data set [1] is less than 10 nM; in data set [3], more than 500 nM; in data set [4] (read-out: IC50 (nM) G1 arrest) it was 41.7 nM; in data set [4] (read-out: IC50 (nM) S decrease) it was 46.1 nM; in data set [6] it was 100 to 500 nM; in data set [7], 100 to 500 nM. In data set [2], the peak level (Cmax) was 1450 ng/mL. Further, the time of peak concentration (Tmax) (as a rule, the time from dosing to the highest level) in data set [2] came to 1.5 h. For the same molecule, the half-life (usually the time in which the quantity being followed falls by half) in data set [2] is 1.5 h. For the same molecule, the AUC(0-t) (usually exposure summed from dosing to a finite time, without extrapolation to infinity) in data set [2] (0-24 hour) was 4400 ng·h/mL. Besides, in data set [2] (0-Inf), the AUC(0-inf) (commonly total exposure, with the tail of the curve extrapolated) was found to be 4540 ng·h/mL. Besides, the “phosphorylation of Rb at Ser780 site” value in data set [5] was “effectively reduce”.
